This note sets out measurements from paper PMC6934184, “Selective DNA-PKcs inhibition extends the therapeutic index of localized radiotherapy and chemotherapy” (The Journal of Clinical Investigation, 2019).

For data set [1], the system named is Calu-6 subcutaneous xenografts. Kind of data set: subcutaneous Calu-6 xenograft with fractionated radiation (4 × 5 Gy). It counts as in vivo, mouse. The conditions noted are these: 30 mg/kg oral 30 min before and 5 h after each of 4 × 5 Gy; CD-1 nude mice. The procedure: To examine the effect of NU5455 treatment on efficacy versus a late radiation toxicity, a total dose of 20 Gy of thoracic radiation was administered either to CD-1 nude mice bearing subcutaneous Calu-6 tumors or to non–tumor-bearing C57BL/6 mice, as four 5-Gy fractions given on days 1, 4, 7, and 10. This fractionated regimen was adapted from an existing method ([30]), resulting in focal areas of lung fibrosis at 24 weeks following treatment, but at a level that would enable any exacerbation of fibrosis to be readily detected.
Figure 5 NU5455 augments the effect of fractionated radiotherapy in Calu-6 tumors without enhancing late radiation damage to the lung. (A) Mean tumor volume of mice bearing Calu-6 subcutaneous xenografts treated with localized radiation (4 × 5 Gy on days 1, 4, 7, and 10) with either NU5455 (30 mg/kg orally) or vehicle 30 minutes before and 5 hours after each dose of IR (3–5 mice per group). The time taken to reach 2 times the tumor volume at the start of treatment (RTV2) was also assessed. […] Samples were scored using the modified Ashcroft system on a scale of 0 to 8 (5–9 mice per group). […] Statistical significance was assessed using a log-rank test (A) and 1-way ANOVA (B). *P < 0.05, **P < 0.01, ****P < 0.0001.

In another data set the test system is lung. Kind of data set: radiation-induced lung fibrosis, Masson's trichrome, modified Ashcroft score. It counts as in vivo, C57BL/6 mice. The conditions noted are these: 30 mg/kg oral 30 min before and 5 h after each of 4 × 5 Gy; 24 weeks. The procedure: Whole-thorax irradiation (5 Gy) was administered to female C57BL/6 mice (6–8 weeks old) on days 1, 4, 7, and 10 with vehicle or NU5455 treatment. Whole lung sections were stained with Masson’s trichrome to visualize collagen deposition and scored using the modified Ashcroft scale proposed by Hübner et al. ([55]). Further details are provided in Supplemental Methods. […]
combined with 10 Gy thorax irradiation ( n = 6 - 7/group). For whole-thorax irradiation, anaesthetized mice were placed in the supine position in a customized rig. The whole thorax was exposed to X-ray radiation generated by the Gulmay Medical RS320 irradiation system (2.034 Gy/minute). The rest of the body was protected by lead shields. […]
Tumor growth in the remaining mice was monitored by bioluminescent imaging on days 0, 4, 8 and 15 post-treatment. […] Data were analyzed using LivingImage software (PerkinElmer). […]
Tissues were fixed in 4% paraformaldehyde (PFA) and paraffin -embedded. […] One tissue section from each of 3 mice per group was examined, and the whole section (excluding necrotic areas) analyzed using ImageScope analysis software (Aperio Technologies). γH2AX and 53BP1 foci were manually counted in 200 nuclei from each tumor sample. The percentage of γH2AX and 53BP1 positive nuclei in lung epithelial cells was quantified manually in normal lung samples across 5 randomly-chosen fields of view per […]

`CN(C(=O)CN1CCOCC1)c1ccc2sc3c(-c4cccc5c(=O)cc(N6CC7CCC(C6)O7)oc45)cccc3c2c1` [NU5455]: in data set [1], the “time taken for tumors to double in volume (RTV2)” value is listed as “increase the time taken”. Further, the radiation-induced lung fibrosis entry with lung is recorded as “did not exacerbate radiation-induced lung fibrosis”.
